Columns and labels:
bromegrass, downy [1] = test: Test D preemergence; format: in vivo, Bromus tectorum; settings: Bromus tectorum, pre-emergence
Text: (§1) Seeds of plant species selected from bluegrass (annual bluegrass, Poa annua), blackgrass (Alopecurus myosuroides), canarygrass (littleseed canarygrass, Phalaris minor), chickweed (common chickweed, Stellaria media), galium (catchweed bedstraw, Galium aparine), bromegrass, downy (downy bromegrass, Bromus tectorum), field poppy (Papaver rhoeas), field violet (Viola arvensis), green foxtail (Setaria viridis), deadnettle (henbit deadnettle, Lamium amplexicaule), Italian ryegrass (Lolium multiflorum), kochia (Kochia scoparia), lambsquarters (Chenopodium album), oilseed rape (Brassica napus), pigweed (Amaranthus retroflexus), chamomile (scentless chamomile, Matricaria inodora), Russian thistle (Salsola kali), speedwell (bird's-eye speedwell, Veronica persica), spring barley (Hordeum vulgare), spring wheat (Triticum aestivum), wild buckwheat (Polygonum convolvulus), wild mustard (Sinapis arvensis), wild oat (Avena fatua), wild radish (Raphanus raphanistrum), windgrass (Apera spica-venti), winter barley (Hordeum vulgare), and winter wheat (Triticum aestivum) were planted into a silt loam soil and treated preemergence with test chemicals formulated in a non-phytotoxic solvent mixture which included a surfactant.
(§2) At the same time, these species were planted in pots containing Redi-Earth® planting medium (Scotts Company, 14111 Scottslawn Road, Marysville, Ohio 43041) comprising spaghnum peat moss, vermiculite, wetting agent and starter nutrients and treated with postemergence applications of the test chemicals formulated in the same manner. Plants ranged in height from 2 to 18 cm (1- to 4-leaf stage). Treated plants and controls were maintained in a controlled growth environment for 7 to 21 days after which time all species were compared to controls and visually evaluated. Plant response ratings, summarized in Table D, are based on a scale of 0 to 100 where 0 is no effect and 100 is complete control. A dash (-) response means no test result.

field poppy [2] = test: Test D postemergence; format: in vivo, Papaver rhoeas; settings: Papaver rhoeas, post-emergence
Text: as §1, §2

spring wheat = test: Test D postemergence; format: in vivo, Triticum aestivum; settings: Triticum aestivum, post-emergence
Text: as §1, §2

winter wheat = test: Test D postemergence; format: in vivo, Triticum aestivum; settings: Triticum aestivum, post-emergence
Text: as §1, §2

wild mustard = test: Test D postemergence; format: in vivo, Sinapis arvensis; settings: Brassica, post-emergence
Text: as §1, §2

bromegrass, downy [3] = test: Test D postemergence; format: in vivo, Bromus tectorum; settings: Bromus tectorum, post-emergence, Postemergence, scale 0 to 100 (0 no effect, 100 complete control), read-out: Plant response rating, Bromegrass, Downy
Text: as §1, §2

field poppy [4] = test: Test D preemergence; format: in vivo, Papaver rhoeas; settings: Papaver rhoeas, pre-emergence
Text: as §1, §2

wild oat = test: Test D postemergence; format: in vivo, Avena fatua; settings: Avena fatua, post-emergence
Text: as §1, §2

field violet = test: Test D preemergence; format: in vivo, Viola arvensis; settings: Viola arvensis, pre-emergence
Text: as §1, §2

lambsquarters = test: Test D preemergence; format: in vivo, Chenopodium album; settings: Chenopodium album, pre-emergence
Text: as §1, §2

In the case of `FC(F)(F)COc1cnn(-c2ccccc2Oc2ncc(Cl)cn2)c1` [Compound 138, 5-chloro-2-[2-[4-(2,2,2-trifluoroethoxy)-1H-pyrazol-1-yl]phenoxy]pyrimidine], the pest or weed control at 16 g/ha (bromegrass, downy [1]; 16 g ai/ha, scale 0 (no effect) to 100 (complete control), read-out: Plant response rating, Bromegrass, Downy) is reported as 0%, the pest or weed control at 31 g/ha (bromegrass, downy [1]; 31 g ai/ha, scale 0-100, read-out: Plant response rating, Bromegrass, Downy) is reported as 0% and the pest or weed control at 62 g/ha (bromegrass, downy [1]; 62 g ai/ha, scale 0-100, read-out: Plant response rating, Bromegrass, Downy) is reported as 0%. For the same compound, the pest or weed control at 125 g/ha (bromegrass, downy [1]; 125 g ai/ha, scale 0-100, read-out: Plant response rating, Bromegrass, Downy) was 10%, the pest or weed control at 16 g/ha (field poppy [2]; 16 g ai/ha, scale 0-100, read-out: Plant response rating, Field Poppy) was 30% and the pest or weed control at 31 g/ha (field poppy [2]; 31 g ai/ha, scale 0 to 100 (0 no effect, 100 complete control), read-out: Plant response rating, Field Poppy) was 35%. For the same compound, the pest or weed control at 62 g/ha (field poppy [2]; 62 g ai/ha, scale 0 to 100 (0 no effect, 100 complete control), read-out: Plant response rating, Field Poppy) was 40%, the pest or weed control at 125 g/ha (field poppy [2]; 125 g ai/ha, scale 0 to 100 (0 no effect, 100 complete control), read-out: Plant response rating, Field Poppy) was 75% and the plant injury at 16 g/ha (spring wheat; 16 g ai/ha, scale 0-100, read-out: Plant response rating, Wheat, Spring) was 5%. The plant injury at 31 g/ha (spring wheat; 31 g ai/ha, scale 0 to 100 (0 no effect, 100 complete control), read-out: Plant response rating, Wheat, Spring) was 5%, the plant injury at 62 g/ha (spring wheat; 62 g ai/ha, scale 0 to 100 (0 no effect, 100 complete control), read-out: Plant response rating, Wheat, Spring) was 5% and the plant injury at 125 g/ha (spring wheat; 125 g ai/ha, scale 0 to 100 (0 no effect, 100 complete control), read-out: Plant response rating, Wheat, Spring) was 15%. For the same compound, the plant injury at 16 g/ha (winter wheat; 16 g ai/ha, scale 0-100, read-out: Plant response rating, Wheat, Winter) was 0%, the plant injury at 31 g/ha (winter wheat; 31 g ai/ha, scale 0 to 100 (0 no effect, 100 complete control), read-out: Plant response rating, Wheat, Winter) was 0% and the plant injury at 62 g/ha (winter wheat; 62 g ai/ha, scale 0 to 100 (0 no effect, 100 complete control), read-out: Plant response rating, Wheat, Winter) was 5%. The plant injury at 125 g/ha (winter wheat; 125 g ai/ha, scale 0 to 100 (0 no effect, 100 complete control), read-out: Plant response rating, Wheat, Winter) was 15%, the pest or weed control at 16 g/ha (wild mustard; 16 g ai/ha, scale 0-100, read-out: Plant response rating, Mustard, Wild) was 65% and the pest or weed control at 31 g/ha (wild mustard; 31 g ai/ha, scale 0 to 100 (0 no effect, 100 complete control), read-out: Plant response rating, Mustard, Wild) was 75%. It also gave a pest or weed control at 62 g/ha (wild mustard; 62 g ai/ha, scale 0 to 100 (0 no effect, 100 complete control), read-out: Plant response rating, Mustard, Wild) of 75%, a pest or weed control at 125 g/ha (wild mustard; 125 g ai/ha, scale 0 to 100 (0 no effect, 100 complete control), read-out: Plant response rating, Mustard, Wild) of 75% and a pest or weed control at 16 g/ha (bromegrass, downy [3]; 16 g ai/ha) of 0%. It also gave a pest or weed control at 31 g/ha (bromegrass, downy [3]; 31 g ai/ha) of 0%, a pest or weed control at 62 g/ha (bromegrass, downy [3]; 62 g ai/ha) of 5% and a pest or weed control at 125 g/ha (bromegrass, downy [3]; 125 g ai/ha) of 5%. The pest or weed control at 16 g/ha (field poppy [4]; 16 g ai/ha, scale 0 (no effect) to 100 (complete control), read-out: Plant response rating, Field Poppy) was 100%, the pest or weed control at 31 g/ha (field poppy [4]; 31 g ai/ha, scale 0-100, read-out: Plant response rating, Field Poppy) was 100% and the pest or weed control at 62 g/ha (field poppy [4]; 62 g ai/ha, scale 0-100, read-out: Plant response rating, Field Poppy) was 100%. The pest or weed control at 125 g/ha (field poppy [4]; 125 g ai/ha, scale 0-100, read-out: Plant response rating, Field Poppy) was 100%, the pest or weed control at 16 g/ha (wild oat; 16 g ai/ha, scale 0-100, read-out: Plant response rating, Oat, Wild) was 5% and the pest or weed control at 31 g/ha (wild oat; 31 g ai/ha, scale 0 to 100 (0 no effect, 100 complete control), read-out: Plant response rating, Oat, Wild) was 0%. It also gave a pest or weed control at 62 g/ha (wild oat; 62 g ai/ha, scale 0 to 100 (0 no effect, 100 complete control), read-out: Plant response rating, Oat, Wild) of 5%, a pest or weed control at 125 g/ha (wild oat; 125 g ai/ha, scale 0 to 100 (0 no effect, 100 complete control), read-out: Plant response rating, Oat, Wild) of 10% and a pest or weed control at 16 g/ha (field violet; 16 g ai/ha, scale 0 (no effect) to 100 (complete control), read-out: Plant response rating, Field Violet) of 70%. The pest or weed control at 31 g/ha (field violet; 31 g ai/ha, scale 0-100, read-out: Plant response rating, Field Violet) was 25%, the pest or weed control at 62 g/ha (field violet; 62 g ai/ha, scale 0-100, read-out: Plant response rating, Field Violet) was 70% and the pest or weed control at 125 g/ha (field violet; 125 g ai/ha, scale 0-100, read-out: Plant response rating, Field Violet) was 75%. It also gave a pest or weed control at 16 g/ha (lambsquarters; 16 g ai/ha, scale 0 (no effect) to 100 (complete control), read-out: Plant response rating, Lambsquarters) of 45%, a pest or weed control at 31 g/ha (lambsquarters; 31 g ai/ha, scale 0-100, read-out: Plant response rating, Lambsquarters) of 10% and a pest or weed control at 62 g/ha (lambsquarters; 62 g ai/ha, scale 0-100, read-out: Plant response rating, Lambsquarters) of 60%. It also gave a pest or weed control at 125 g/ha (lambsquarters; 125 g ai/ha, scale 0-100, read-out: Plant response rating, Lambsquarters) of 100%.

Reference: patent US9695155B2, “Herbicidal substituted pyrimidinyloxy benzene compounds” (E. I. DU PONT DE NEMOURS AND COMPANY, priority 2013, dated 2017)
